Measurements as given in PubChem BioAssay AID264 (DTP/NCI, 2004).
Several values for one entry are separate records, joined by “and”; a condition that tells them apart may be missing. Equal entries are not always repeated. Records with an inconclusive call do not appear. Peptide text beside a SMILES is read from it. * marks the point of attachment. Trt = c1ccc(C(c2ccccc2)(c2ccccc2)*)cc1; Cbz = O=C(OCc1ccccc1)*

System: nude mice, LX-1 lung xenograft intrarenal, tumor weight T/C
Assay: NCI In Vivo Anticancer Drug Screen. Data for tumor model Human Lung LX-1 Xenograft (intrarenal inoculation) in NU/NU Swiss (nude) mice
Details: endpoint: mean tumor weight change, higher = larger tumour
Summary of the method: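 Activity was scored by measuring tumors in treated animals and in vehicle controls, then reporting the treated result as a fraction of the control result.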

[1] = dose: 50.0 mg/kg/injection, schedule: Q04DX003 (sc), vehicle: saline with Tween-80
[2] = dose: 100.0 mg/kg/injection, schedule: Q04DX003 (sc), vehicle: saline with Tween-80
[3] = dose: 200.0 mg/kg/injection, schedule: Q04DX003 (sc), vehicle: saline with Tween-80
[4] = dose: 400.0 mg/kg/injection, schedule: Q04DX003 (sc), vehicle: saline with Tween-80
[5] = dose: 200.0 mg/kg/injection, schedule: Q04DX003 (sc), vehicle: saline
[6] = dose: 25.0 mg/kg/injection, schedule: Q01DX010 (sc), vehicle: saline
[7] = dose: 50.0 mg/kg/injection, schedule: Q01DX010 (sc), vehicle: saline
[8] = dose: 150.0 mg/kg/injection, schedule: Q04DX003 (sc), vehicle: saline with Tween-80
[9] = dose: 100.0 mg/kg/injection, schedule: Q04DX003 (sc), vehicle: Klucel (hydroxypropylcellulose) (HPC)
[10] = dose: 200.0 mg/kg/injection, schedule: Q04DX003 (sc), vehicle: Klucel (hydroxypropylcellulose) (HPC)
[11] = dose: 12.5 mg/kg/injection, schedule: Q01DX010 (sc), vehicle: saline
[12] = dose: 50.0 mg/kg/injection, schedule: Q01DX010 (sc), vehicle: Klucel (hydroxypropylcellulose) (HPC)
[13] = dose: 100.0 mg/kg/injection, schedule: Q01DX010 (sc), vehicle: Klucel (hydroxypropylcellulose) (HPC)

With `CCCCCCCCCCS(=O)CC(CO)NC(=O)/C=C/c1c(C)[nH]c(=O)[nH]c1=O` (configuration not stated) the T/C (dose: 9.38 mg/kg/injection, schedule: Q04DX003 (sc), vehicle: distilled water + Tween-80) was 108 % of control and the T/C (dose: 18.75 mg/kg/injection, schedule: Q04DX003 (sc), vehicle: distilled water + Tween-80) was 124 % of control.

In the case of `O=c1[nH]c2c(ccc3cnccc32)c2c1CCC2`, the T/C (dose: 100.0 mg/kg/injection, schedule: Q04DX003 (sc), vehicle: suspension in saline) is reported as 87 % of control, the T/C (dose: 200.0 mg/kg/injection, schedule: Q04DX003 (sc), vehicle: suspension in saline) is reported as 87 % of control and the T/C (dose: 400.0 mg/kg/injection, schedule: Q04DX003 (sc), vehicle: suspension in saline) is reported as 57 % of control. For the same molecule, the T/C (dose: 800.0 mg/kg/injection, schedule: Q04DX003 (sc), vehicle: suspension in saline) was 109 % of control.

`O=C(Nc1ccccc1C(=O)O)c1cc([N+](=O)[O-])cc([N+](=O)[O-])c1` was tested, and the T/C [1] was 86 % of control, the T/C [2] was 86 % of control and the T/C [3] was 100 % of control. For the same molecule, the T/C [4] was 64 % of control.

For `O=NNc1ccccn1`, the T/C (dose: 0.13 mg/kg/injection, schedule: Q01DX010 (sc), vehicle: saline) was 120 % of control, the T/C (dose: 0.25 mg/kg/injection, schedule: Q01DX010 (sc), vehicle: saline) was 309 % of control and the T/C (dose: 0.5 mg/kg/injection, schedule: Q01DX010 (sc), vehicle: saline) was 211 % of control. For the same molecule, the T/C (dose: 1.0 mg/kg/injection, schedule: Q01DX010 (sc), vehicle: saline) was 105 % of control, the T/C (dose: 32.0 mg/kg/injection, schedule: Q01DX010 (sc), vehicle: saline) was 46 % of control and the T/C (dose: 64.0 mg/kg/injection, schedule: Q01DX010 (sc), vehicle: saline) was 30 % of control.

`Nc1cc2c3c(cccc3c1)C(=O)N(CCN1CCCC1)C2=O` was tested, and the T/C [1] was 42 % of control, the T/C [2] was 79 % of control and the T/C [3] was 108 % of control. For the same molecule, the T/C [4] was 46 % of control.

With `OCCCN1CCCCC1CO` (configuration not stated) the T/C [5] was 98 % of control.

`Cc1cc(NCCCCCCCCNc2cc(C)nc3cc(N(C)C)ccc23)c2ccc(N(C)C)cc2n1` was tested, and the T/C (dose: 18.75 mg/kg/injection, schedule: Q01DX010 (sc), vehicle: saline with Tween-80) was 56 % of control, the T/C (dose: 37.5 mg/kg/injection, schedule: Q01DX010 (sc), vehicle: saline with Tween-80) was 34 % of control and 45 % of control and the T/C (dose: 75.0 mg/kg/injection, schedule: Q04DX003 (sc), vehicle: distilled water + Tween-80 + alcohol) was 42 % of control and 60 % of control. For the same molecule, the T/C (dose: 150.0 mg/kg/injection, schedule: Q04DX003 (sc), vehicle: distilled water + Tween-80 + alcohol) was 61 % of control and 72 % of control, the T/C (dose: 300.0 mg/kg/injection, schedule: Q04DX003 (sc), vehicle: distilled water + Tween-80 + alcohol) was 33 % of control and 39 % of control and the T/C (dose: 600.0 mg/kg/injection, schedule: Q04DX003 (sc), vehicle: distilled water + Tween-80 + alcohol) was 25 % of control.

For `Nc1ncnc2c1ncn2C1OC(CO)C(O)C1O` (configuration not stated), the T/C [6] was 156 % of control, the T/C [7] was 97 % of control and the T/C [5] was 102 % of control. The T/C (dose: 400.0 mg/kg/injection, schedule: Q04DX003 (sc), vehicle: saline) was 20 % of control, the T/C (dose: 800.0 mg/kg/injection, schedule: Q04DX003 (sc), vehicle: saline) was 117 % of control and the T/C (dose: 1600.0 mg/kg/injection, schedule: Q04DX003 (sc), vehicle: saline) was 70 % of control.

For `C=C(C)[C@@H]1CCc2c(O)c(O)c(=O)cc(C)c2C1`, the T/C (dose: 300.0 mg/kg/injection, schedule: Q04DX003 (sc), vehicle: saline) was 106 % of control, the T/C (dose: 600.0 mg/kg/injection, schedule: Q04DX003 (sc), vehicle: saline) was 62 % of control and the T/C (dose: 1200.0 mg/kg/injection, schedule: Q04DX003 (sc), vehicle: saline) was 90 % of control. The T/C (dose: 2400.0 mg/kg/injection, schedule: Q04DX003 (sc), vehicle: saline) was 85 % of control.

In the case of `CO[C@H]1C[C@@H]2CC[C@@H](C)[C@@](O)(O2)C(=O)C(=O)N2CCCC[C@H]2C(=O)O[C@H]([C@H](C)C[C@@H]2CC[C@@H](O)[C@H](OC)C2)CC(=O)[C@H](C)C=C(C)[C@@H](O)[C@@H](OC)C(=O)[C@H](C)C[C@H](C)/C=C/C=C/C=C1C`, the T/C (dose: 100.0 mg/kg/injection, schedule: Q01DX010 (sc), vehicle: saline with Tween-80) is reported as 72 % of control, the T/C (dose: 200.0 mg/kg/injection, schedule: Q01DX010 (sc), vehicle: saline with Tween-80) is reported as 47 % of control and the T/C (dose: 400.0 mg/kg/injection, schedule: Q01DX010 (sc), vehicle: saline with Tween-80) is reported as 37 % of control. The T/C (dose: 800.0 mg/kg/injection, schedule: Q01DX010 (sc), vehicle: saline with Tween-80) was 69 % of control.

With `CCCCCCCCCCCCSC1=C(Cl)C(=O)C(OC)=C(OC)C1=O` the T/C (dose: 75.0 mg/kg/injection, schedule: Q04DX003 (sc), vehicle: saline with Tween-80) was 71 % of control and the T/C [8] was 81 % of control.

`O=[N+]([O-])c1ccc(-n2[nH]nnc2=S)cc1` was tested, and the T/C (dose: 50.0 mg/kg/injection, schedule: Q04DX003 (sc), vehicle: Klucel (hydroxypropylcellulose) (HPC)) was 92 % of control, the T/C [9] was 84 % of control and the T/C [10] was 95 % of control. For the same molecule, the T/C (dose: 400.0 mg/kg/injection, schedule: Q04DX003 (sc), vehicle: Klucel (hydroxypropylcellulose) (HPC)) was 59 % of control.

`c1cc2n(n1)CCN2` was tested, and the T/C [7] was 90 % of control and 233 % of control, the T/C (dose: 100.0 mg/kg/injection, schedule: Q01DX010 (sc), vehicle: saline) was 117 % of control and 124 % of control and the T/C (dose: 200.0 mg/kg/injection, schedule: Q01DX010 (sc), vehicle: saline) was 35 % of control. For the same molecule, the T/C (dose: 333.33 mg/kg/injection, schedule: Q04DX003 (ip), vehicle: saline) was 67 % of control.

In the case of `CC1(C)N=C(N)N=C(N)N1c1ccc(CCCCc2ccc(S(=O)(=O)F)cc2Cl)c(Cl)c1`, the T/C [11] is reported as 78 % of control.

`O=C(O)/C=C/C(=O)Nc1ccc(Cl)c(Cl)c1` was tested, and the T/C [9] was 95 % of control and the T/C [10] was 91 % of control.

With `COC(=O)C(CSC(c1ccccc1)(c1ccccc1)c1ccccc1)NC(=O)C(CC(N)=O)NC(=O)OCc1ccccc1` (stereo not drawn) (Cbz-Asn-Cys(Trt)-OMe; configuration not given here) the T/C (dose: 300.0 mg/kg/injection, schedule: Q04DX003 (sc), vehicle: distilled water + Tween-80) was 79 % of control, the T/C (dose: 1200.0 mg/kg/injection, schedule: Q04DX003 (sc), vehicle: distilled water + Tween-80) was 105 % of control and the T/C (dose: 2400.0 mg/kg/injection, schedule: Q04DX003 (sc), vehicle: distilled water + Tween-80) was 116 % of control.

`CN1C(=O)CC2(CCN(CCCC(=O)c3ccc(F)cc3)CC2)C1=O` was tested, and the T/C (dose: 18.75 mg/kg/injection, schedule: Q04DX003 (sc), vehicle: suspension in saline) was 33 % of control, the T/C (dose: 75.0 mg/kg/injection, schedule: Q04DX003 (sc), vehicle: suspension in saline) was 85 % of control and the T/C (dose: 150.0 mg/kg/injection, schedule: Q04DX003 (sc), vehicle: suspension in saline) was 77 % of control.

For `CN(C)C(=O)c1cccc(COc2ccc(N3C(N)=NC(N)=NC3(C)C)cc2Cl)c1`, the T/C (dose: 6.25 mg/kg/injection, schedule: Q01DX010 (sc), vehicle: saline) was 85 % of control, the T/C [11] was 57 % of control and the T/C [6] was 25 % of control. For the same molecule, the T/C (dose: 25.0 mg/kg/injection, schedule: Q01DX010 (sc), vehicle: suspension in saline) was 91 % of control.

In the case of `Cn1cnc([N+](=O)[O-])c1S(=O)(=O)NCN1CCOCC1`, the T/C (dose: 25.0 mg/kg/injection, schedule: Q01DX010 (sc), vehicle: Klucel (hydroxypropylcellulose) (HPC)) is reported as 34 % of control, the T/C [12] is reported as 67 % of control and the T/C [13] is reported as 43 % of control.

With `COc1ccc(C[C@H](N)C(=O)NC2C(CO)OC(n3cnc4c(N(C)C)ncnc43)C2O)cc1` (some centres not stated) the T/C (dose: 100.0 mg/kg/injection, schedule: Q04DX003 (sc), vehicle: saline) was 109 % of control and the T/C [5] was 74 % of control.

`C[C@]12CCC(=O)C(O)=C1CC[C@@H]1[C@@H]2CC[C@]2(C)C(=O)CC[C@@H]12` was tested, and the T/C [12] was 43 % of control, the T/C [13] was 30 % of control and the T/C (dose: 200.0 mg/kg/injection, schedule: Q01DX010 (sc), vehicle: Klucel (hydroxypropylcellulose) (HPC)) was 47 % of control. The T/C (dose: 400.0 mg/kg/injection, schedule: Q01DX010 (sc), vehicle: Klucel (hydroxypropylcellulose) (HPC)) was 48 % of control.

In the case of `CC(=O)ON(C(C)=O)c1ccc(C(N)=O)cc1`, the T/C [8] is reported as 110 % of control, the T/C (dose: 300.0 mg/kg/injection, schedule: Q04DX003 (sc), vehicle: saline with Tween-80) is reported as 114 % of control and the T/C (dose: 600.0 mg/kg/injection, schedule: Q04DX003 (sc), vehicle: saline with Tween-80) is reported as 100 % of control. The T/C (dose: 1200.0 mg/kg/injection, schedule: Q04DX003 (sc), vehicle: saline with Tween-80) was 97 % of control.
